These results are taken from article PMC10850501 (Nature Communications, 2024).

Entries after “also recorded” stand apart in the source; their conditions may differ. Where two headings read alike, the source gives them in different places. Peptide text beside a SMILES is read from it.

Series [1] deals with SARS-CoV-2 live virus (B.1 lineage), Vero E6 cells. It is filed as cell-based.
A short description of series [2]: Cytocompatibility (CCK8). It is filed as cell-based, human. The following applies: human, A549 cells, read-out: cytocompatibility, normalized to serum free media; for viability at 6 h, 10 µM: 0.01 mM peptide; for viability at 6 h, 100 µM: 0.1 mM peptide; for viability at 6 h, 1000 µM: 1 mM peptide. The method, then: (§1) Cytocompatibility of the peptides was evaluated at 1, 0.1, and 0.01 mM with A549 cells (ATCC CCL-185) cultured in complete media consisting of 90% F-12K and 10% FBS. The A549 cells were utilized after their first passage and seeded at 10,000 cells/well in a 96-well plate for 24 hours. The conditions were prepared in serum-free A549 media and introduced into the wells for 6 hours, after which the condition media were aspirated, the wells were washed once with PBS, and 10 µL of CCK8 was added to 100 µL of PBS[32]. The plate was incubated for 1 hour and read on a Tecan M200 Infinite plate reader at an absorbance of 450 nm with a reference wavelength of 650 nm. The results were analyzed and normalized to the serum-free media control[28],[32],[76].

The test system of series [3] is A549 cells. In words: Cytocompatibility (CCK8). It is filed as cell-based, human. The following applies: human alveolar epithelial A549 cells; 0.01-1 mM. The method, then:
as §1

Series [4] in a line: Acute IV pharmacokinetics. It is filed as in vivo, rat (female Wistar). The method, then:
(§2) Female Wistar rats (225–250 g, 8–12 weeks old) were observed and acclimatized for 2 weeks prior to running the studies. They were housed in a controlled environment with temperature at […] and 40–70% humidity. They were kept in an alternating 12-hour light/dark cycle, and food, and water was provided as pellets ad libitum. Female Wistar Rats were used for the pharmacokinetics and the drug clearance analysis from the blood. The two hydrogels (ESBP2 and ESBP3) at 10 mg/ml concentration were injected into the rats via the lateral tail vein. For subcutaneous implants, the substance was injected between the shoulder blades and above the lumbar vertebrae, 200 μL each, using a 25-gauge needle. The hydrogel bolus was prepared with 0.9% saline and was injected within 1–2 minutes. The volume injected was approximately 1% of the total body weight of the rat, which was calculated prior to the dosing. The initial blood draw was performed for baseline, and the subsequent blood collection was performed from the lateral vein using 25 g butterfly needles.
Rat blood samples were collected at 0, 5, 15, 30 minutes, and 1, 2, 4, 8, and 24 hours post-injection timepoints for Acute PK and were aliquoted out into heparinized tubes to prevent coagulation and stored on top of ice packs. Blood collected in K2EDTA anticoagulant tubes was processed to plasma frozen via centrifugation at 13000 RCF for 10 minutes at 4 °C and stored at −80 °C till analysis using HPLC. The body weight was recorded every day prior to the blood collection.

A short description of series [5]: Daily repeat IV dosing, 10 days (chronic PK/safety). Format: in vivo, rat (female Wistar). Here is the method: as §2
Female Wistar rats (225–250 g, 8–12 weeks old) were weighed and repeatedly dosed (1% by weight) IV with ESBP2 or ESBP3 daily at 10 mg/mL (~3 mM). Rat blood samples were collected daily prior to injection via tail vein. Post 10 days of treatment, animals were allowed to recover for 10 days and then sacrificed. Plasma was stored and analyzed as above. The body weight was recorded every day prior to the blood collection.

Series [6] in a line: Ultracentrifugation pellet / solid-state NMR of assemblies. It is filed as physicochemical. The following applies: 10 mg/mL, 150,000 RCF, 30 minutes, 4 °C. Here is the method:
To experimentally validate E1:ESBP3 peptide mixtures, solid-state NMR experiments were pursued. ^13C solid-state NMR measurements were conducted using cross-polarization magic angle spinning (^1H-^13C CPMAS) to evaluate sample structural order and structural differences between samples. The peptides were not isotopically enriched, so the ^13C signal was from the 1% natural abundance for ^13C.
After peptide dissolution at 10 mg/mL, the samples were concentrated by ultracentrifugation for 30 minutes in Bruker 3.22 mm NMR rotors at 4 °C and 150,000 RCF in Ultra-clear tubes of SW-41 Ti swinging bucket rotor fitted onto a Beckman Optima XPN-100 centrifuge. A 11.75 T magnet Bruker Avance III HD 500 spectrometer (500 MHz, ^1H NMR Larmor frequency) equipped with a room temperature 3.2 mm Bruker Low-E ^1H/^13C/^15N NMR probe was used for measurements. ^13C chemical shift referencing was conducted using adamantane referenced to tetramethylsilane. 1D ^13C cross-polarization magic angle spinning (CPMAS) spectra were collected using the standard Bruker cp pulse sequence. A 10 kHz magic angle spinning speed was used for all samples. The channels frequency for the optimization of the Hartmann-Hahn condition for ^1H and ^13C are 500.133 MHz and 125.771 MHz, respectively. A recycle delay time of 4 seconds (d1) and dwell time of 5 μs (DW) were used. Acquisition time was set to 10.24 ms. […]

Series [7] concerns the molecule itself. Kind of series: co-sedimentation + other: solid-state NMR (1H-13C CPMAS).
Where [8] appears, read: replicate 1, CCK8, 6 h exposure, absorbance 450 nm.

Regarding “Ac-ESLSLSLSLSLSLEGSALEEQLKTFLDKFMHELEDLLYQLAL-NH2 [ESBP2]”, the “in vitro live virus inhibition, in words” value in series [1] is “inhibition of live virus; also recorded: significantly improved in vitro live virus inhibition”. Moreover, the viability at 6 h, 10 µM in series [2] (replicate 1, CCK8, 6 h) amounted to 94.5%; in series [2] (replicate 2, CCK8, 6 h), 98.3%. Moreover, the viability at 6 h, 100 µM was found to be 129% in series [2] (replicate 1, CCK8, 6 h); 132% in series [2] (replicate 2, CCK8, 6 h); 196% in series [2] (replicate 3, CCK8, 6 h). Moreover, the viability at 6 h, 1000 µM in series [2] (setting [8]) was determined as 117%; in series [2] (replicate 2, CCK8, 6 h) it was 104%; in series [2] (replicate 3, CCK8, 6 h), 94.1%. In addition, the “cytocompatibility, in words” value in series [3] is recorded as “excellent cytocompatibility”. Further, in series [4] (ESBP2 IV bolus through the tail vein, Wistar rats (n=8)), the “eliminated by” value was at most 8 h. Also, the “clearance from the circulation (time)” value in series [4] (acute 24-hour single-dose IV bolus PK, rats) was 4 to 8 h. The Tmax in series [4] (female, rat, 10 mg/mL, ESBP2 IV bolus through the tail vein, Wistar rats (n=8), plasma, HPLC, read-out: time of concentration peak (converted)) was 30 min. For the same molecule, in series [4] (female, rat, plasma, 10 mg/mL, ESBP2 IV bolus, Wistar rats (n=8), at 30 minutes following injection, read-out: observed maximum concentration), the Cmax came to 36000 ng/mL. For the same molecule, the AUC in series [4] (female, rat, plasma, 10 mg/mL, ESBP2 IV bolus, Wistar rats (n=8), read-out: area under the curve) is 47000 ng·h/mL. The “repeat IV dosing safety, in words” value in series [5] (daily IV for 10 days, ~1 w% (10 mg/mL), 225-250 g adult rats) is on record as “no adverse effect”. In addition, in series [5] (daily repeated IV dosing for 10 days, rats), the “significant changes in body weight (ESBP3 also animal behavior, adverse events, gross organ morphology) compared to carrier” value is given as “no”.

With `CC(=O)N[C@@H](CCC(=O)O)C(=O)N[C@@H](CO)C(=O)N[C@@H](CC(C)C)C(=O)N[C@@H](CO)C(=O)N[C@@H](CC(C)C)C(=O)N[C@@H](CO)C(=O)N[C@@H](CC(C)C)C(=O)N[C@@H](CO)C(=O)N[C@@H](CC(C)C)C(=O)N[C@@H](CO)C(=O)N[C@@H](CC(C)C)C(=O)N[C@@H](CO)C(=O)N[C@@H](CC(C)C)C(=O)N[C@@H](CCC(=O)O)C(N)=O` [E1] (Ac-ESLSLSLSLSLSLE-NH2), in series [1], the “Comparative, Average” value is given as 65.5306 and the “live virus plaque inhibition, in words” value was “no major differences”. In addition, in series [2] (replicate 1, CCK8, 6 h), the viability at 6 h, 10 µM turned out to be 117% and the viability at 6 h, 100 µM amounted to 111%. For the same molecule, in series [2] (replicate 2, CCK8, 6 h), the viability at 6 h, 10 µM amounted to 122%; the viability at 6 h, 100 µM was 147%; the viability at 6 h, 1000 µM came out at 195%. In series [2] (replicate 3, CCK8, 6 h), the viability at 6 h, 100 µM is 117% and the viability at 6 h, 1000 µM is 139%. Further, the viability at 6 h, 1000 µM in series [2] (setting [8]) stood at 169%. Further, in series [6], the “ultracentrifuge pellet (assembly into nanofibers)” value is “centrifuge pellets”.

For Ac-ESLSLSLSLSLSLE-NH2 (also called E-(SL)6-E; E-flanked SAP) [E1 self-assembling peptide (E-SLSLSLSLSLSL-E)], in series [7], the binding result is on record as “binds”.
